Measured values published in patent US8969335B2, “Benzonitrile derivatives as kinase inhibitors” (MERCK PATENT GmbH, priority 2011, dated 2015).
Where two headings read alike, the source gives them in different places.

Key:
[1] = molecular target: IKKε (Homo sapiens (Human), UniProt Q14164); experiment: IKKε kinase assay (384-well flashplate assay); type: biochemical; conditions: 1 nM IKKε, 10 μM ATP, 30° C., 2 hours; read-out: IKKε enzyme assay IC50
Procedure: Test for the Inhibition of IKKε
IKKε—Kinase Assay (IKKepsilon)
The kinase assay is performed as 384-well flashplate assay (for example for Topcount measurement).
1 nM IKKε, 800 nM biotinylated IκBα(19-42) peptide (Biotin-C6-C6-[…]) and 10 μM ATP (spiked with 0.3 μCi of ^33P-ATP/well) are incubated at 30° C. for 2 hours in a total volume of 50 μl (10 mM MOPS, 10 mM Mg acetate, 0.1 mM EGTA, 1 mM dithiothreitol, 0.02% of Brij35, 0.1% of BSA, 0.1% of BioStab, pH 7.5) with or without test compound. The reaction is stopped using 25 μl of 200 mM EDTA. After 30 min at room temperature, the liquid is removed, and each well is washed three times with 100 μl of 0.9% sodium chloride solution. Non-specific reaction is determined in the presence of 3 μM MSC2119074 (BX-795). The radioactivity is measured using a Topcount (PerkinElmer). The results (for example IC50 values) are calculated using program tools provided by the IT Department (for example AssayExplorer, Symyx).

[2] = test system: TBK1 + IKKε (phospho-IRF3 @ Ser 386, MDA-MB-468 cells); experiment: TBK1 + IKKε cell assay: dose response inhibition of phospho-IRF3 @ Ser 386 in MDA-MB-468 cells; type: cell-based; conditions: Homo sapiens
[3] = molecular target: TANK binding kinase (TBK1) (Homo sapiens (Human), UniProt Q9UHD2); experiment: TBK1 enzyme assay (384-well flashplate kinase assay); type: biochemical; conditions: 0.6 nM TBK1, 10 μM ATP, 30° C., 120 min
TANK binding kinase (TBK1), sequence (Q9UHD2 whole entry): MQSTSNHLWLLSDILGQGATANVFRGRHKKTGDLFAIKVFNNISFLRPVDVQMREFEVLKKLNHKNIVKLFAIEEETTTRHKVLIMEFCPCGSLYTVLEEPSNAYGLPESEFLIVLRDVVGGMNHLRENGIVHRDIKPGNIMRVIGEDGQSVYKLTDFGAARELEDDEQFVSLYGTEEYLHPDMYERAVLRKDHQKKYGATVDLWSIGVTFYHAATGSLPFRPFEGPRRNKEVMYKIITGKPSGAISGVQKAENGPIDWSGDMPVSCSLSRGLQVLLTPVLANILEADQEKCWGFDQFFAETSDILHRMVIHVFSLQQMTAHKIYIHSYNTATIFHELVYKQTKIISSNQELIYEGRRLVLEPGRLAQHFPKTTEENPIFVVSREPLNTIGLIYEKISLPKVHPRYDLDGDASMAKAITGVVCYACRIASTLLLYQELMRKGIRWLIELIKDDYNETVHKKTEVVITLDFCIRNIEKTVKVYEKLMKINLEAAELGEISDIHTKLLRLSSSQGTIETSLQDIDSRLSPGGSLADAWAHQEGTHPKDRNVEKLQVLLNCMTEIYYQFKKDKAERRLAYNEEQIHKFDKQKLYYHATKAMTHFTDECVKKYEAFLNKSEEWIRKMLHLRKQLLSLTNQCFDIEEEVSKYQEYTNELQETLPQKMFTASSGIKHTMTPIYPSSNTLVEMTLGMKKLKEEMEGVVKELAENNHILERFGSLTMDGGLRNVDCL

[4] = poly(I:C) stimulation, nuclear phospho-IRF3, read-out: TBK1 + IKKε cell assay IC50

IKKε, sequence (Q14164 whole entry): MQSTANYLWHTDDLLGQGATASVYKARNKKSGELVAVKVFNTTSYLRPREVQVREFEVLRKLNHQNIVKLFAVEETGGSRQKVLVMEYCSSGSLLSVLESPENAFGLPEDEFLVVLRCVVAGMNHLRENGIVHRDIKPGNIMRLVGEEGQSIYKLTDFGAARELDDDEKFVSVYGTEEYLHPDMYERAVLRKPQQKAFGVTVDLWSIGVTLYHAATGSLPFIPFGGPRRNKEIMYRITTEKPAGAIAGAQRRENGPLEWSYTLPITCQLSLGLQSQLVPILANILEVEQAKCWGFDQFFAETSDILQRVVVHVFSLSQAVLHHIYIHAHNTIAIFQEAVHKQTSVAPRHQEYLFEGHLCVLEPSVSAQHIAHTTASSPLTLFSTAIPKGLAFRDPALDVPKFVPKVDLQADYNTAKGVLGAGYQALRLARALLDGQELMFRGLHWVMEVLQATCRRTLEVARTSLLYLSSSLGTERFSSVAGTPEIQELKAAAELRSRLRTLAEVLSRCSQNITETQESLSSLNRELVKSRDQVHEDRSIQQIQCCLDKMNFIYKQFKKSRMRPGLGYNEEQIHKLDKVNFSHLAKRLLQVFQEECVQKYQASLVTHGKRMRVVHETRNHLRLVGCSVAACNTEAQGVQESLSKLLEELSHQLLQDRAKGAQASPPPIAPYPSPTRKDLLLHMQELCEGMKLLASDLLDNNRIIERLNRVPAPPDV

SMILES	IC50 [1] [µM]	IC50 [2, 4] [µM]	IC50 [3] [µM]	IC50 ([2]; reference inhibitor range, read-out: IC50 of reference inhibitor in phospho-IRF3 cell assay) [µM]
N#Cc1cc(-c2ccnc(Nc3cnn(C4CCNCC4)c3)n2)ccc1OC1CCOCC1 [Compound A64, 5-[2-(1-piperidin-4-yl-1H-pyrazol-4-ylamino)pyrimidin-4-yl]-2-(tetrahydropyran-4-yloxy)-benzonitrile]	0.006	0.23	0.006	
N#Cc1cc(-c2ccnc(Nc3cncc(C4CCNCC4)n3)c2)ccc1OC1CCOCC1 [Compound A96, 5-[2-(6-piperidin-4-ylpyrazin-2-ylamino)pyridin-4-yl]-2-(tetrahydropyran-4-yloxy)benzonitrile]	0.04	5.4	0.024	
N#Cc1cc(-c2ccnc(Nc3cnn(C[C@H]4C[C@@H]4CO)c3)n2)ccc1OCC1CCC1 [Compound A95, 2-cyclobutylmethoxy-5-{2-[1-((1S,2S)-2-hydroxymethylcyclopropylmethyl)-1H-pyrazol-4-ylamino]pyrimidin-4-yl}benzonitrile]	0.008	0.81	0.01	
N#Cc1cc(-c2ccnc(Nc3cnn(C[C@H]4C[C@@H]4CO)c3)n2)ccc1OC1CCOCC1 [Compound A67, 5-{2-[1-((1S,2S)-2-hydroxymethylcyclopropylmethyl)-1H-pyrazol-4-ylamino]pyrimidin-4-yl}-2-(tetrahydropyran-4-yloxy)benzonitrile]	0.004	0.42	0.006	
O=C(NCCCNc1nc(Nc2cccc(NC(=O)N3CCCC3)c2)ncc1I)c1cccs1 [BX-795, reference compound]				0.2 to 0.8
N#Cc1cc(-c2ccnc(Nc3cncc(C4=CCCCO4)n3)c2)ccc1OC1CCOCC1 [Compound A92, 5-{2-[6-(5,6-dihydro-4H-pyran-2-yl)pyrazin-2-ylamino]pyridin-4-yl}-2-(tetrahydropyran-4-yloxy)benzonitrile]	0.93		0.85	
N#Cc1cc(-c2ccnc(Nc3cnn(CC4CCOC4)c3)c2)ccc1OC1CCOCC1 (centres unmarked) [Compound A27, 5-{2-[1-(Tetrahydrofuran-3-ylmethyl)-1H-pyrazol-4-ylamino]pyridin-4-yl}-2-(tetrahydropyran-4-yloxy)benzonitrile]	0.077		0.085	
N#Cc1cc(-c2ccnc(Nc3cc(C4=CCCCO4)ccn3)c2)ccc1OC1CCOCC1 [Compound A86, 5-{2-[4-(5,6-dihydro-4H-pyran-2-yl)pyridin-2-ylamino]pyridin-4-yl}-2-(tetrahydropyran-4-yloxy)benzonitrile]	0.3		0.29	
N#Cc1cc(-c2ccnc(Nc3cn[nH]c3)c2)ccc1OCC1CCC1 [Compound A109, 2-cyclobutylmethoxy-5-[2-(1H-pyrazol-4-ylamino)pyridin-4-yl]benzonitrile]	0.14		0.38	
N#Cc1cc(-c2ccnc(Nc3cnn(CCn4cccn4)c3)c2)ccc1OC1CCOCC1 [Compound A38, 5-{2-[1-(2-Pyrazol-1-ylethyl)-1H-pyrazol-4-ylamino]pyridin-4-yl}-2-(tetrahydropyran-4-yloxy)benzonitrile]	0.32		0.46	
N#Cc1cc(-c2ccnc(Nc3ccc4oc(C(N)=O)cc4c3)c2)ccc1OC1CCOCC1 [Compound A19, 5-{4-[3-Cyano-4-(tetrahydropyran-4-yloxy)phenyl]pyridin-2-ylamino}benzofuran-2-carboxamide]	0.39		1.9	
N#Cc1cc(-c2ccnc(Nc3cnn(CC(F)F)c3)n2)ccc1OC1CCOCC1 [Compound A44, 5-{2-[1-(2,2-Difluoroethyl)-1H-pyrazol-4-ylamino]pyrimidin-4-yl}-2-(tetrahydropyran-4-yloxy)benzonitrile]	0.01		0.005	
N#Cc1cc(-c2ccnc(Nc3cc(C(=O)O)ccn3)c2)ccc1OC1CCOCC1 [Compound A65, 2-{4-[3-cyano-4-(tetrahydropyran-4-yloxy)phenyl]pyridin-2-ylamino}isonicotinic acid]	0.12		0.17	
N#Cc1cc(-c2ccnc(Nc3ncccn3)c2)ccc1OC1CCOCC1 [Compound A14, 5-[2-(Pyrimidin-2-ylamino)pyridin-4-yl]-2-(tetrahydropyran-4-yloxy)benzonitrile]	1.2		0.67	

The next lines start with the values.

IC50 [1] [µM]	IC50 [2, 4] [µM]	IC50 [3] [µM]	IC50 ([2]; reference inhibitor range, read-out: IC50 of reference inhibitor in phospho-IRF3 cell assay) [µM]	SMILES
0.21	13	0.23		Cc1cc(Nc2nccc(-c3ccc(OC4CCOCC4)c(C#N)c3)n2)no1 [Compound A80, 5-[2-(5-methylisoxazol-3-ylamino)pyrimidin-4-yl]-2-(tetrahydropyran-4-yloxy)benzonitrile]
0.089	4.8	0.11		N#Cc1cc(-c2ccnc(Nc3cnn(CC4CC4C#N)c3)c2)ccc1OC1CCOCC1 (centres unmarked) [Compound A24, 5-{2-[1-(2-Cyanocyclopropylmethyl)-1H-pyrazol-4-ylamino]pyridin-4-yl}-2-(tetrahydropyran-4-yloxy)benzonitrile]
0.025	0.45	0.024		N#Cc1cc(-c2ccnc(Nc3ccc(CN4CCOCC4)cn3)c2)ccc1OC1CCOCC1 [Compound A118, 5-[2-(5-morpholin-4-ylmethylpyridin-2-ylamino)pyridin-4-yl]-2-(tetrahydropyran-4-yloxy)benzonitrile]
0.007	0.84	0.01		N#Cc1cc(-c2ccnc(Nc3cnc(C4CCNCC4)cn3)c2)ccc1OC1CCOCC1 [Compound A72, 5-[2-(5-piperidin-4-ylpyrazin-2-ylamino)pyridin-4-yl]-2-(tetrahydropyran-4-yloxy)benzonitrile]
0.006	2.1	0.005		CN1CCC(c2ccnc(Nc3cc(-c4ccc(OC5CCOCC5)c(C#N)c4)ccn3)c2)CC1 [Compound A78, 5-[2-(1′-methyl-1′,2′,3′,4′,5′,6′-hexahydro-[4,4′]bipyridinyl-2-ylamino)pyridin-4-yl]-2-(tetrahydropyran-4-yloxy)benzonitrile]
0.074	23	0.28		N#Cc1cc(-c2ccnc(Nc3cnn(C4CCNC4)c3)c2)ccc1OC1CCOCC1 (centres unmarked) [Compound A28, 5-[2-(1-Pyrrolidin-3-yl-1H-pyrazol-4-ylamino)pyridin-4-yl]-2-(tetrahydropyran-4-yloxy)benzonitrile]
0.091	4.9	0.12		N#Cc1cc(-c2ccnc(Nc3cnn(CCO)c3)c2)ccc1OC1CCOCC1 [Compound A79, 5-{2-[1-(2-hydroxyethyl)-1H-pyrazol-4-ylamino]pyridin-4-yl}-2-(tetrahydropyran-4-yloxy)benzonitrile]
0.025	1.3	0.03		N#Cc1cc(-c2ccnc(Nc3cc(C4CC4)n[nH]3)c2)ccc1OC1CCOCC1 [Compound A12, 5-[2-(5-Cyclopropyl-2H-pyrazol-3-ylamino)pyridin-4-yl]-2-(tetrahydropyran-4-yloxy)benzonitrile]
0.039	2.1	0.011		N#Cc1cc(-c2ccnc(Nc3cnn([C@H]4CC[C@@H](O)CC4)c3)n2)ccc1OCC1CCC1 [Compound A97, 2-cyclobutylmethoxy-5-{2-[1-(4-hydroxycyclohexyl)-1H-pyrazol-4-ylamino]-pyrimidin-4-yl}benzonitrile]
0.008	0.39	0.005		N#Cc1cc(-c2ccnc(Nc3cnc(C4CCOCC4)cn3)c2)ccc1OC1CCOCC1 [Compound A98, 2-(tetrahydropyran-4-yloxy)-5-{2-[5-(tetrahydropyran-4-yl)pyrazin-2-yl-amino]pyridin-4-yl}benzonitrile]
0.19		6.6		CC(=O)N1CCC(COc2ccc(-c3ccnc(Nc4cnn(C5CCNCC5)c4)c3)cc2C#N)CC1 [Compound A116, 2-(1-acetylpiperidin-4-ylmethoxy)-5-[2-(1-piperidin-4-yl-1H-pyrazol-4-ylamino)pyridin-4-yl]benzonitrile]
0.12		0.14		N#Cc1cc(-c2ccnc(Nc3nccc(C4CCNCC4)n3)c2)ccc1OC1CCOCC1 [Compound A89, 5-[2-(4-piperidin-4-ylpyrimidin-2-ylamino)pyridin-4-yl]-2-(tetrahydropyran-4-yloxy)benzonitrile]
0.027		0.018		N#Cc1cc(-c2ccnc(Nc3cnn(C[C@H]4C[C@@H]4CO)c3)c2)ccc1OC1CCOCC1 [Compound A26, 5-{2-[1-((1S,2S)-2-Hydroxymethylcyclopropylmethyl)-1H-pyrazol-4-ylamino]-pyridin-4-yl}-2-(tetrahydropyran-4-yloxy)benzonitrile]
0.14		0.18		N#Cc1cc(-c2ccnc(Nc3cc(CO)ccn3)n2)ccc1OC1CCOCC1 [Compound A70, 5-[2-(4-hydroxymethylpyridin-2-ylamino)pyrimidin-4-yl]-2-(tetrahydropyran-4-yloxy)benzonitrile]
0.85		0.86		CC(C)(C)c1cc(Nc2cc(-c3ccc(OC4CCOCC4)c(C#N)c3)ccn2)on1 [Compound A31, 5-[2-(3-tert-Butylisoxazol-5-ylamino)pyridin-4-yl]-2-(tetrahydropyran-4-yloxy)benzonitrile]
